{
  "source": "paper PMC11489133",
  "about": "“Obicetrapib exhibits favorable physiochemical and pharmacokinetic properties compared to previous cholesteryl ester transfer protein inhibitors: An integrated summary of results from non‐human primate studies and clinical trials” (Pharmacology Research & Perspectives, 2024)",
  "key": {"[1]": {"test": "disposition of 14C-obicetrapib after a single oral dose of 20 mg/kg in the cynomolgus monkey", "type": "in vivo", "details": "urine and feces samples", "procedure": "Figure 1 illustrates the metabolism of obicetrapib (TA‐8995) in the cynomolgus monkey. A study was conducted to examine the disposition of ^14C‐obicetrapib following oral administration in the cynomolgus monkey (n = 3 males) at a dose level of 20 mg/kg. […] The monkeys each received a single oral dose of ^14C‐obicetrapib by gavage at a target dose level of 20 mg/kg and a nominal dose volume of 5 mL/kg. […] After the final blood collection, radioactivity was measured in the blood and plasma by liquid scintillation counting. The profile of M1 in selected samples of plasma was determined by high‐performance liquid chromatography (HPLC) (following extraction of the matrix, where relevant) and selected M1 were identified by liquid chromatography mass spectrometry. In plasma, unchanged obicetrapib and a M1 were the principal radioactive components and represented at least 66% of the chromatographic radioactivity in any single profile."}, "[2]": {"test": "absorption, metabolism and excretion study of a single 10 mg dose of 14C-obicetrapib (NCT02408055, TA‐8995‐07)", "type": "in vivo, humans", "procedure": "Figure 2 illustrates the obicetrapib (TA‐8995) M1 detected above the LLOQ (>1% radioactivity) in human plasma expressed as the percent radioactivity profiled. A study (NCT02408055) was conducted in healthy male participants (n = 6) to assess the absorption, metabolism, and excretion of a single dose of 10 mg of ^14C‐obicetrapib (TA‐8995‐07 CSR, NewAmsterdam Pharma). One of the objectives of the study was to determine the chemical structure of ^14C‐obicetrapib M1 that represent ≥10% of total radioactivity in plasma. The participants received 10 mL ^14C‐obicetrapib oral suspension, containing 10 mg and 100 μCi of ^14C‐obicetrapib in the fasted state. Clinical samples for analysis were selected based upon the levels of radioactivity present as determined by liquid scintillation counting and were stored at below −50°C (nominally −80°C) when not in use. Plasma samples from the participants were sequentially extracted with acetonitrile at five time points. The resulting extracts were concentrated by evaporation and reconstituted in mobile phase HPLC prior to analysis by radio‐HPLC. All samples were analyzed by liquid scintillation counting to evaluate the recovery of radioactivity. The profiles of the radiolabeled components in each sample of plasma were determined by HPLC analysis with off‐line radio‐detection. Selected samples from each matrix were then further analyzed by high‐resolution mass spectrometry to investigate the identity of M1. In plasma, the predominant metabolite component was unchanged obicetrapib (~79% of total drug‐related exposure), and the most abundant plasma M1 were M1 and P9 of which each accounted for ~4% of total exposure (Figure 2). No significant differences in the metabolite profiles were observed across the samples obtained from the six participants (TA‐8995‐07 CSR, NewAmsterdam Pharma)."}, "[3]": {"test": "TA‐8995‐203 Phase II trial in Japanese participants, plasma concentrations of obicetrapib", "type": "in vivo, humans", "details": "for Mean (SD) Plasma Level / concentration at 8 weeks: Week 8 (EOT), Japanese participants; for % Change in Plasma Level: Week 8 to Week 12, mean (SD); for concentration at 8 weeks / concentration at 12 weeks: both sexes, human, plasma, oral, read-out: Mean (SD) Plasma Level; for concentration at 12 weeks: Week 12, four weeks after the end of treatment", "procedure": "The PK parameters and the effect of food on the bioavailability of obicetrapib in humans have been examined in both Phase I[9] (TA‐8995‐09 CSR, NewAmsterdam Pharma) and Phase II trials.[10], [11], [12], [13] The trials were performed in accordance with the Declaration of Helsinki, Good Clinical Practice Guidelines, and applicable regulatory requirements. Approval was obtained from the relevant ethical review boards for each site. All volunteers provided written informed consent prior to participation. PK parameters were determined using WinNonlin software, version 4.1 or higher (Pharsight/Certara Corporation, USA). Concentrations of obicetrapib were summarized for each treatment group using descriptive statistics.\nThis Phase II trial (NCT05421078) was designed to evaluate the efficacy, safety, and tolerability of obicetrapib as an adjunct to stable statin therapy in Japanese participants with LDL‐C >70 mg/dL, or non‐HDL‐C >100 mg/dL, and triglyceride levels <400 mg/dL.[13] Eligible participants were receiving either atorvastatin 10 or 20 mg or rosuvastatin 5 or 10 mg for at least 8 weeks prior to screening and continued statin therapy throughout the treatment period. One hundred two participants (mean age: 64.8 years; 71.6% male; mean BMI: 25.6 kg/m^2) were enrolled at nine clinical research sites in Japan and randomized to one of four treatment groups in a 1:1:1:1 ratio: 1) placebo; 2) 2.5 mg obicetrapib; 3) 5 mg obicetrapib; or 4) 10 mg obicetrapib.\nThe participants were instructed to take their assigned treatment orally once daily at approximately the same time each morning for the 8‐week treatment period. After randomization, participants returned to the clinical research site during Weeks 2, 4, and 8 (end of treatment) for PK assessments. Participants also completed a follow‐up visit 4 weeks after the end of treatment (Week 12) for a final PK assessment. All of the participants who were randomized completed the treatment and were included in the primary analysis. The PK population included all randomized participants in the mITT population assigned to the three obicetrapib dose groups who had sufficient blood samples collected for valid estimation of PK parameters; 76 (100%) participants in the PK population were included in the 4‐week post‐end of treatment PK analysis (TA‐8995‐203 CSR, NewAmsterdam Pharma)."}, "[4]": {"parameters": "method as in PMID 24628035", "details": "cited from earlier work; for t ½ (terminal half‐life): arithmetic mean (CV%)"}, "[5]": {"details": "Obicetrapib 2.5 mg + stable statin therapy"}, "[6]": {"details": "Obicetrapib 5 mg + stable statin therapy"}, "[7]": {"details": "Obicetrapib 10 mg + stable statin therapy"}, "[8]": {"details": "single dose 5 mg, after a standard breakfast, geometric mean (CV%)"}, "[9]": {"details": "single dose 10 mg, after a standard breakfast, geometric mean (CV%)"}},
  "note": "Like-named read-outs stand apart in the source and are kept apart here. Marks after values point to notes of the source that are not given here.",
  "data": [
    {"smiles": "CCOC(=O)N1c2ccc(C(F)(F)F)cc2C(N(Cc2cc(C(F)(F)F)cc(C(F)(F)F)c2)c2ncc(OCCCC(=O)O)cn2)CC1CC", "note": "(stereo not drawn) [Obicetrapib]", "values": [
      {"measurement": "metabolism of obicetrapib", "setting": "[1]", "result": "extensive"},
      {"measurement": "percent radioactivity profiled in human plasma", "setting": "[2]; n = 6 individuals, 24 h AUC pools, Figure 2", "result": "up to 92.8%"},
      {"measurement": "share of total drug‐related exposure in plasma", "setting": "[2]; single 10 mg 14C‐obicetrapib, fasted, healthy males n = 6", "result": "~ 79%"},
      {"measurement": "Mean (SD) Plasma Level", "setting": "[3]; [5]", "result": "194.5 (42.7) ng/mL"},
      {"measurement": "% Change in Plasma Level", "setting": "[3]; [5]", "result": "−93.4 (2.6) %"},
      {"measurement": "% Change in Plasma Level", "setting": "[3]; Obicetrapib 2.5 mg + stable statin therapy, listed as obicetrapib", "result": "−93.4", "unit": "%"},
      {"measurement": "% Change in Plasma Level", "setting": "[3]; [6]", "result": "−93.5 (3.4) %"},
      {"measurement": "% Change in Plasma Level", "setting": "[3]; Obicetrapib 5 mg + stable statin therapy, listed as obicetrapib", "result": "−93.5", "unit": "%"},
      {"measurement": "Mean (SD) Plasma Level", "setting": "[3]; [7]", "result": "506.3 (237.5) ng/mL"},
      {"measurement": "% Change in Plasma Level", "setting": "[3]; [7]", "result": "−95.2 (2.3) %"},
      {"measurement": "% Change in Plasma Level", "setting": "[3]; Obicetrapib 10 mg + stable statin therapy, listed as obicetrapib", "result": "−95.2", "unit": "%"},
      {"measurement": "concentration at 8 weeks", "setting": "[3]; 2.5 mg, Obicetrapib 2.5 mg + stable statin therapy", "result": 194, "unit": "ng/mL"},
      {"measurement": "concentration at 8 weeks", "setting": "[3]; 10 mg, Obicetrapib 10 mg + stable statin therapy", "result": 506, "unit": "ng/mL"},
      {"measurement": "concentration at 12 weeks", "setting": "[3]; [5]", "result": 13.2, "unit": "ng/mL"},
      {"measurement": "concentration at 8 weeks", "setting": "[3]; [6]", "result": 362, "unit": "ng/mL"},
      {"measurement": "concentration at 12 weeks", "setting": "[3]; [6]", "result": 24.6, "unit": "ng/mL"},
      {"measurement": "concentration at 12 weeks", "setting": "[3]; [7]", "result": 27.6, "unit": "ng/mL"},
      {"measurement": "t ½ (terminal half‐life)", "setting": "[4]; multiple daily doses 5 mg, after the last dose", "result": "148 (30%) h"},
      {"measurement": "t max", "setting": "[4]; multiple daily doses 5 mg, after the last dose, median (minimum, maximum)", "result": "4 (3, 8) h"},
      {"measurement": "C max", "setting": "[4]; multiple daily doses 5 mg, steady state, after the last dose, geometric mean (CV%)", "result": "436 (18%) ng/mL"},
      {"measurement": "AUC (0, τ, ss)", "setting": "[4]; multiple daily doses 5 mg, steady state, τ 24 h, geometric mean (CV%)", "result": "7606 (20%) ^f ng·h/mL"},
      {"measurement": "Rac (accumulation ratio, AUC(0,τ,ss)/AUC(0–24 h))", "setting": "[4]; multiple daily doses 5 mg", "result": "4.3 (1.1)"},
      {"measurement": "Rac (accumulation ratio, AUC(0,τ,ss)/AUC(0–24 h))", "setting": "[4]; multiple daily doses 5 mg, listed as obicetrapib", "result": 4.3},
      {"measurement": "t ½ (terminal half‐life)", "setting": "[4]; multiple daily doses 10 mg, after the last dose", "result": "131 (19%) h"},
      {"measurement": "t max", "setting": "[4]; multiple daily doses 10 mg, after the last dose, median (minimum, maximum)", "result": "6 (4, 8) h"},
      {"measurement": "C max", "setting": "[4]; multiple daily doses 10 mg, steady state, after the last dose, geometric mean (CV%)", "result": "692 (23%) ng/mL"},
      {"measurement": "Rac (accumulation ratio, AUC(0,τ,ss)/AUC(0–24 h))", "setting": "[4]; multiple daily doses 10 mg", "result": "3.7 (0.8)"},
      {"measurement": "Rac (accumulation ratio, AUC(0,τ,ss)/AUC(0–24 h))", "setting": "[4]; multiple daily doses 10 mg, listed as obicetrapib", "result": 3.7},
      {"measurement": "t ½ (terminal half‐life)", "setting": "[4]; multiple daily doses 25 mg, after the last dose", "result": "121 (23%) h"},
      {"measurement": "t max", "setting": "[4]; multiple daily doses 25 mg, after the last dose, median (minimum, maximum)", "result": "4 (2, 6) h"},
      {"measurement": "C max", "setting": "[4]; multiple daily doses 25 mg, steady state, after the last dose, geometric mean (CV%)", "result": "1398 (18%) ng/mL"},
      {"measurement": "Rac (accumulation ratio, AUC(0,τ,ss)/AUC(0–24 h))", "setting": "[4]; multiple daily doses 25 mg", "result": "2.1 (0.3)"},
      {"measurement": "Rac (accumulation ratio, AUC(0,τ,ss)/AUC(0–24 h))", "setting": "[4]; multiple daily doses 25 mg, listed as obicetrapib", "result": 2.1},
      {"measurement": "t max", "setting": "[4]; multiple daily doses, all doses except 10 mg", "result": 4, "unit": "h"},
      {"measurement": "obicetrapib in urine", "setting": "[4]; multiple doses, any participant", "result": "not detected"},
      {"measurement": "AUC (0–24 h)", "setting": "[4]; [8]", "result": "1796 (14%) ng·h/mL"},
      {"measurement": "C max", "setting": "[4]; [8]", "result": "116 (13%) ng/mL"},
      {"measurement": "t max", "setting": "[4]; single dose 5 mg, after a standard breakfast, median (minimum, maximum)", "result": "6 (4, 8) h"},
      {"measurement": "AUC (0–24 h)", "setting": "[4]; [9]", "result": "3471 (18%) ng·h/mL"},
      {"measurement": "C max", "setting": "[4]; [9]", "result": "245 (14%) ng/mL"},
      {"measurement": "t max", "setting": "[4]; single dose 10 mg, after a standard breakfast, median (minimum, maximum)", "result": "6 (4, 8) h"},
      {"measurement": "C max", "setting": "[4]; single dose 25 mg, after a standard breakfast, geometric mean (CV%)", "result": "750 (19%) ng/mL"},
      {"measurement": "t max", "setting": "[4]; single dose 25 mg, after a standard breakfast, median (minimum, maximum)", "result": "6 (3, 8) h"},
      {"measurement": "t max", "setting": "[4]; single dose regardless of the strength of the dose (1–25 mg)", "result": 6, "unit": "h"},
      {"measurement": "time in which plasma levels were approaching steady state", "setting": "[4]; visual inspection of trough concentrations, multiple once daily doses", "result": "within one to two weeks"}
    ]}
  ]
}
